Tests used:
[1] = test system: barnyard grass; test: Test Example 5: herbicidal effect by foliage application, plastic box (Table 20, symbol H); assay type: in vivo, barnyard grass (Echinochloa crus-galli); conditions: foliage application, 320 g/ha, three weeks after application
Procedure, shortened: (§1)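 Plants were sown into sterilized diluvial soil under about 1.5 cm cover and kept in a greenhouse at 25° C. to 30° C. Fourteen days on, foliage received an even spray of the diluted emulsion. Herbicidal or crop effect was judged three weeks afterwards.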

[2] = test system: rice flat sedge; test: Test Example 3: herbicidal effect by foliage application, Wagner pot (Table 18, symbol E); assay type: in vivo, rice flat sedge (Cyperus iria); conditions: 320 g/ha
Procedure, shortened: (§2)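 Plants were sown in alluvial soil held under 0.1–0.5 cm standing water and grown 14 days in a greenhouse at 25–30 °C. An emulsifiable formulation, water-diluted to the set dose, was then sprayed onto the foliage, and effects were scored three weeks later using previously defined criteria.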

[3] = test system: blackgrass; test: Test Example 5: herbicidal effect by foliage application, plastic box (Table 20, symbol J); assay type: in vivo, blackgrass (Alopecurus myosuroides); conditions: foliage application, 320 g/ha, three weeks after application
Procedure, shortened: as §1

[4] = test system: false cleavers; test: Test Example 5: herbicidal effect by foliage application, plastic box (Table 20, symbol Q); assay type: in vivo, false cleavers (Galium spurium); conditions: foliage application, 320 g/ha, three weeks after application
Procedure, shortened: as §1

[5] = test system: Italian ryegrass; test: Test Example 5: herbicidal effect by foliage application, plastic box (Table 20, symbol K); assay type: in vivo, Italian ryegrass (Lolium multiflorum); conditions: foliage application, 320 g/ha, three weeks after application
Procedure, shortened: as §1

[6] = test system: barnyard grass; test: Test Example 3: herbicidal effect by foliage application, Wagner pot (Table 18, symbol H); assay type: in vivo, barnyard grass (Echinochloa crus-galli); conditions: 320 g/ha
Procedure, shortened: as §2

[7] = test system: wild oat; test: Test Example 5: herbicidal effect by foliage application, plastic box (Table 20, symbol I); assay type: in vivo, wild oat (Avena fatua); conditions: foliage application, 320 g/ha, three weeks after application
Procedure, shortened: as §1

[8] = test system: chickweed; test: Test Example 4: herbicidal effect by soil treatment (Table 19, symbol P); assay type: in vivo, common chickweed (Stellaria media); conditions: amount of applied herbicide 320 g/ha
Procedure, shortened: (§3)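 In this soil treatment, the formulated compound reached the seeds only through the soil: seeds were buried about 1.5 cm deep in sterilized diluvial soil, then the diluted emulsion was sprayed over the surface. After three weeks at 25° C. to 30° C. in a greenhouse, effects were graded on criteria from an earlier test.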

[9] = test system: lambsquarters; test: Test Example 4: herbicidal effect by soil treatment (Table 19, symbol O); assay type: in vivo, lambsquarters (Chenopodium album); conditions: amount of applied herbicide 320 g/ha
Procedure, shortened: as §3

[10] = test system: late watergrass; test: Test Example 1: herbicidal activity, application before weed generation under submerged conditions (Table 16, symbol A); assay type: in vivo, late watergrass (Echinochloa oryzicola); conditions: amount of applied herbicide 320 g/ha
Procedure, shortened: (§4)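 Alluvial soil was flooded to 4 cm depth, weed seeds were sown mixed and 2.5-leaf rice seedlings were transplanted. On sowing day, the compound's emulsion, diluted in water to a set dose, was applied to the water surface. Plants grew at 25–30 °C and were scored 0–5 after three weeks.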

[11] = test system: false cleavers; test: Test Example 4: herbicidal effect by soil treatment (Table 19, symbol Q); assay type: in vivo, false cleavers (Galium spurium); conditions: amount of applied herbicide 320 g/ha
Procedure, shortened: as §3

[12] = test system: green foxtail; test: Test Example 4: herbicidal effect by soil treatment (Table 19, symbol G); assay type: in vivo, green foxtail (Setaria viridis); conditions: amount of applied herbicide 320 g/ha
Procedure, shortened: as §3

[13] = test system: green foxtail; test: Test Example 5: herbicidal effect by foliage application, plastic box (Table 20, symbol G); assay type: in vivo, green foxtail (Setaria viridis); conditions: foliage application, 320 g/ha, three weeks after application
Procedure, shortened: as §1

[14] = test system: wild oat; test: Test Example 4: herbicidal effect by soil treatment (Table 19, symbol I); assay type: in vivo, wild oat (Avena fatua); conditions: amount of applied herbicide 320 g/ha
Procedure, shortened: as §3

[15] = test system: Japanese bulrush; test: Test Example 1: herbicidal activity, application before weed generation under submerged conditions (Table 16, symbol B); assay type: in vivo, Japanese bulrush (Schoenoplectus juncoides); conditions: amount of applied herbicide 320 g/ha
Procedure, shortened: as §4

[16] = test system: redroot pigweed; test: Test Example 4: herbicidal effect by soil treatment (Table 19, symbol N); assay type: in vivo, redroot pigweed (Amaranthus retroflexus); conditions: amount of applied herbicide 320 g/ha
Procedure, shortened: as §3

[17] = test system: persian speedwell; test: Test Example 4: herbicidal effect by soil treatment (Table 19, symbol R); assay type: in vivo, Persian speedwell (Veronica persica); conditions: amount of applied herbicide 320 g/ha
Procedure, shortened: as §3

[18] = test system: windgrass; test: Test Example 4: herbicidal effect by soil treatment (Table 19, symbol L); assay type: in vivo, windgrass (Apera spica-venti); conditions: amount of applied herbicide 320 g/ha
Procedure, shortened: as §3

[19] = test system: blackgrass; test: Test Example 4: herbicidal effect by soil treatment (Table 19, symbol J); assay type: in vivo, blackgrass (Alopecurus myosuroides); conditions: amount of applied herbicide 320 g/ha
Procedure, shortened: as §3

[20] = test system: redroot pigweed; test: Test Example 5: herbicidal effect by foliage application, plastic box (Table 20, symbol N); assay type: in vivo, redroot pigweed (Amaranthus retroflexus); conditions: foliage application, 320 g/ha, three weeks after application
Procedure, shortened: as §1

[21] = test system: barnyard grass; test: Test Example 4: herbicidal effect by soil treatment (Table 19, symbol H); assay type: in vivo, barnyard grass (Echinochloa crus-galli); conditions: amount of applied herbicide 320 g/ha
Procedure, shortened: as §3

[22] = test system: persian speedwell; test: Test Example 5: herbicidal effect by foliage application, plastic box (Table 20, symbol R); assay type: in vivo, Persian speedwell (Veronica persica); conditions: foliage application, 320 g/ha, three weeks after application
Procedure, shortened: as §1

[23] = test system: Italian ryegrass; test: Test Example 4: herbicidal effect by soil treatment (Table 19, symbol K); assay type: in vivo, Italian ryegrass (Lolium multiflorum); conditions: amount of applied herbicide 320 g/ha
Procedure, shortened: as §3

[24] = test system: velvetleaf; test: Test Example 4: herbicidal effect by soil treatment (Table 19, symbol M); assay type: in vivo, velvetleaf (Abutilon theophrasti); conditions: amount of applied herbicide 320 g/ha
Procedure, shortened: as §3

[25] = test system: southern crabgrass; test: Test Example 4: herbicidal effect by soil treatment (Table 19, symbol F); assay type: in vivo, southern crabgrass (Digitaria ciliaris); conditions: amount of applied herbicide 320 g/ha
Procedure, shortened: as §3

[26] = test system: velvetleaf; test: Test Example 5: herbicidal effect by foliage application, plastic box (Table 20, symbol M); assay type: in vivo, velvetleaf (Abutilon theophrasti); conditions: foliage application, 320 g/ha, three weeks after application
Procedure, shortened: as §1

[27] = test system: oval-leafed pondweed; test: Test Example 1: herbicidal activity, application before weed generation under submerged conditions (Table 16, symbol C); assay type: in vivo, oval-leafed pondweed (Monochoria vaginalis); conditions: amount of applied herbicide 320 g/ha
Procedure, shortened: as §4

[28] = test system: windgrass; test: Test Example 5: herbicidal effect by foliage application, plastic box (Table 20, symbol L); assay type: in vivo, windgrass (Apera spica-venti); conditions: foliage application, 320 g/ha, three weeks after application
Procedure, shortened: as §1

[29] = test system: chickweed; test: Test Example 5: herbicidal effect by foliage application, plastic box (Table 20, symbol P); assay type: in vivo, common chickweed (Stellaria media); conditions: foliage application, 320 g/ha, three weeks after application
Procedure, shortened: as §1

[30] = test system: Chinese sprangletop; test: Test Example 3: herbicidal effect by foliage application, Wagner pot (Table 18, symbol D); assay type: in vivo, chinese sprangletop (Leptochloa chinensis); conditions: 320 g/ha
Procedure, shortened: as §2

[31] = test system: southern crabgrass; test: Test Example 5: herbicidal effect by foliage application, plastic box (Table 20, symbol F); assay type: in vivo, southern crabgrass (Digitaria ciliaris); conditions: foliage application, 320 g/ha, three weeks after application
Procedure, shortened: as §1

[32] = test system: lambsquarters; test: Test Example 5: herbicidal effect by foliage application, plastic box (Table 20, symbol O); assay type: in vivo, lambsquarters (Chenopodium album); conditions: foliage application, 320 g/ha, three weeks after application
Procedure, shortened: as §1

Row | Structure (SMILES) | H: barnyard grass, herbicidal effect grade [1] | herbicidal effect on rice flat sedge (E) [2] | J: blackgrass, herbicidal effect grade [3] | Q: false cleavers, herbicidal effect grade [4] | K: Italian ryegrass, herbicidal effect grade [5] | herbicidal effect on barnyard grass (H) [6] | I: wild oat, herbicidal effect grade [7] | P: chickweed, herbicidal effect grade [8] | O: lambsquarters, herbicidal effect grade [9] | Herbicidal effect, A: late watergrass [10] | Q: false cleavers, herbicidal effect grade [11] | G: green foxtail, herbicidal effect grade [12] | G: green foxtail, herbicidal effect grade [13] | I: wild oat, herbicidal effect grade [14] | Herbicidal effect, B: Japanese bulrush [15] | N: redroot pigweed, herbicidal effect grade [16] | R: persian speedwell, herbicidal effect grade [17] | L: windgrass, herbicidal effect grade [18] | J: blackgrass, herbicidal effect grade [19] | N: redroot pigweed, herbicidal effect grade [20] | further results
1 | COc1ccc2c(-c3c(O)c(C)nn(C)c3=O)c(-c3ccc(SC)cc3)sc2c1 [3-074] | 0 (Herbicidal rate of 5% or less (almost no effect)) | 5 (Herbicidal rate of 90% or more (almost completely withered)) | 0 (Herbicidal rate of 5% or less (almost no effect)) | 5 (Herbicidal rate of 90% or more (almost completely withered)) | 0 (Herbicidal rate of 5% or less (almost no effect)) | 4 (Herbicidal rate of 70% or more and less than 90%) | 0 (Herbicidal rate of 5% or less (almost no effect)) | 3 (Herbicidal rate of 40% or more and less than 70%) | 5 (Herbicidal rate of 90% or more (almost completely withered)) | 0 (Herbicidal rate of 5% or less (almost no effect)) | 0 (Herbicidal rate of 5% or less (almost no effect)) | 0 (Herbicidal rate of 5% or less (almost no effect)) | 3 (Herbicidal rate of 40% or more and less than 70%) | 0 (Herbicidal rate of 5% or less (almost no effect)) | 2 (Herbicidal rate of 20% or more and less than 40%) | 5 (Herbicidal rate of 90% or more (almost completely withered)) | 5 (Herbicidal rate of 90% or more (almost completely withered)) | 0 (Herbicidal rate of 5% or less (almost no effect)) | 0 (Herbicidal rate of 5% or less (almost no effect)) | 5 (Herbicidal rate of 90% or more (almost completely withered)) | H: barnyard grass, herbicidal effect grade [21]: 0 (Herbicidal rate of 5% or less (almost no effect)); R: persian speedwell, herbicidal effect grade [22]: 5 (Herbicidal rate of 90% or more (almost completely withered)); K: Italian ryegrass, herbicidal effect grade [23]: 0 (Herbicidal rate of 5% or less (almost no effect)); M: velvetleaf, herbicidal effect grade [24]: 0 (Herbicidal rate of 5% or less (almost no effect)); F: southern crabgrass, herbicidal effect grade [25]: 0 (Herbicidal rate of 5% or less (almost no effect)); M: velvetleaf, herbicidal effect grade [26]: 4 (Herbicidal rate of 70% or more and less than 90%); Herbicidal effect, C: oval-leafed pondweed [27]: 0 (Herbicidal rate of 5% or less (almost no effect)); L: windgrass, herbicidal effect grade [28]: 3 (Herbicidal rate of 40% or more and less than 70%); P: chickweed, herbicidal effect grade [29]: 5 (Herbicidal rate of 90% or more (almost completely withered)); herbicidal effect on Chinese sprangletop (D) [30]: 3 (Herbicidal rate of 40% or more and less than 70%); F: southern crabgrass, herbicidal effect grade [31]: 2 (Herbicidal rate of 20% or more and less than 40%); O: lambsquarters, herbicidal effect grade [32]: 5 (Herbicidal rate of 90% or more (almost completely withered))
2 | CCn1nc(C)c(O)c(-c2c(-c3ccccc3OC)sc3cc(OC)ccc23)c1=O [3-084] | 3 (Herbicidal rate of 40% or more and less than 70%) | 3 (Herbicidal rate of 40% or more and less than 70%) | 4 (Herbicidal rate of 70% or more and less than 90%) | 5 (Herbicidal rate of 90% or more (almost completely withered)) | 1 (Herbicidal rate of 5% or more and less than 20%) | 5 (Herbicidal rate of 90% or more (almost completely withered)) | 3 (Herbicidal rate of 40% or more and less than 70%) | 4 (Herbicidal rate of 70% or more and less than 90%) | 2 (Herbicidal rate of 20% or more and less than 40%) | 0 (Herbicidal rate of 5% or less (almost no effect)) | 3 (Herbicidal rate of 40% or more and less than 70%) | 0 (Herbicidal rate of 5% or less (almost no effect)) | 3 (Herbicidal rate of 40% or more and less than 70%) | 2 (Herbicidal rate of 20% or more and less than 40%) | 3 (Herbicidal rate of 40% or more and less than 70%) | 4 (Herbicidal rate of 70% or more and less than 90%) | 4 (Herbicidal rate of 70% or more and less than 90%) | 0 (Herbicidal rate of 5% or less (almost no effect)) | 0 (Herbicidal rate of 5% or less (almost no effect)) | 5 (Herbicidal rate of 90% or more (almost completely withered)) | H: barnyard grass, herbicidal effect grade [21]: 0 (Herbicidal rate of 5% or less (almost no effect)); R: persian speedwell, herbicidal effect grade [22]: 5 (Herbicidal rate of 90% or more (almost completely withered)); K: Italian ryegrass, herbicidal effect grade [23]: 1 (Herbicidal rate of 5% or more and less than 20%); M: velvetleaf, herbicidal effect grade [24]: 0 (Herbicidal rate of 5% or less (almost no effect)); F: southern crabgrass, herbicidal effect grade [25]: 0 (Herbicidal rate of 5% or less (almost no effect)); M: velvetleaf, herbicidal effect grade [26]: 4 (Herbicidal rate of 70% or more and less than 90%); Herbicidal effect, C: oval-leafed pondweed [27]: 1 (Herbicidal rate of 5% or more and less than 20%); L: windgrass, herbicidal effect grade [28]: 3 (Herbicidal rate of 40% or more and less than 70%); P: chickweed, herbicidal effect grade [29]: 5 (Herbicidal rate of 90% or more (almost completely withered)); herbicidal effect on Chinese sprangletop (D) [30]: 0 (Herbicidal rate of 5% or less (almost no effect)); F: southern crabgrass, herbicidal effect grade [31]: 3 (Herbicidal rate of 40% or more and less than 70%); O: lambsquarters, herbicidal effect grade [32]: 3 (Herbicidal rate of 40% or more and less than 70%)
